From ChEMBL document CHEMBL3046010, “Synthesis and pharmacological evaluation of 4-[2-hydroxy-3-(4-phenyl-piperazin-1-yl)-propoxy]-4-azatricyclo[5.2.1.02,6]dec-8-ene-3,5-dione” (Med Chem Res, 2008)

Tests used:
Assay type in all cases: tissue-based
[1] = target: Beta-1 adrenergic receptor (Rattus norvegicus, UniProt P18090); test: Displacement of [3H]CGP12177 from beta1 adrenoreceptor in Rattus norvegicus (rat) cerebral cortex by liquid scintillation counting
[2] = target: T1, 5-hydroxytryptamine receptor 1A (Rattus norvegicus, UniProt P19327); test: Displacement of [3H]8-OH-DPAT from 5HT1A receptor in Rattus norvegicus (rat) cerebral cortex after 15 min by filter binding assay
T1 sequence (P19327 whole entry): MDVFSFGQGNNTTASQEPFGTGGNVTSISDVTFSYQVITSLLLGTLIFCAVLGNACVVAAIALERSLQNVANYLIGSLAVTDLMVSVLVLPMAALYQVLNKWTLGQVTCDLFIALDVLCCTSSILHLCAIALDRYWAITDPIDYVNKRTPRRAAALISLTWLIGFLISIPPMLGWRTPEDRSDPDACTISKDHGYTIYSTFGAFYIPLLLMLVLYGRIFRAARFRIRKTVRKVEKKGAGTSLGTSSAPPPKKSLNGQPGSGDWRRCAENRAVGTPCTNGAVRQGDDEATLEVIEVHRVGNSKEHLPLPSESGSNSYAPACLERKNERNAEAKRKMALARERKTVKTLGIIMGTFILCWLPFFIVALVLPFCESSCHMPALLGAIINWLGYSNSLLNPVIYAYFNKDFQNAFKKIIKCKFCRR

[3] = target: 5-hydroxytryptamine receptor 2A (Rattus norvegicus, UniProt P14842); test: Displacement of [3H]Ketanserin from 5HT2A receptor in Rattus norvegicus (rat) cerebral cortex by filter binding assay
Chain of 5-hydroxytryptamine receptor 2A (P14842 whole entry): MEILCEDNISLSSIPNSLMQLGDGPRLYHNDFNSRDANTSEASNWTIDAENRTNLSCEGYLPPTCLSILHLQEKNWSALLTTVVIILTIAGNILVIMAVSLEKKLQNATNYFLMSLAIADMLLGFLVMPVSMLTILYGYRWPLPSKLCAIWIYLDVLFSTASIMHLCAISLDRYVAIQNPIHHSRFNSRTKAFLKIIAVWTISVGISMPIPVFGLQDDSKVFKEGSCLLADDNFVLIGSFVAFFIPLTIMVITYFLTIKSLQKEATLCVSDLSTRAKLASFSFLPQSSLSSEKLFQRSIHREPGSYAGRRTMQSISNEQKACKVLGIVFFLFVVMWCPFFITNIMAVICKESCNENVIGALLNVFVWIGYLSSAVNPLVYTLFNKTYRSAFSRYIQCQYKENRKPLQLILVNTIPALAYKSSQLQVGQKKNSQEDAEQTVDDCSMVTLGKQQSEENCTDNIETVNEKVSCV

Chain of Beta-1 adrenergic receptor (P18090 whole entry): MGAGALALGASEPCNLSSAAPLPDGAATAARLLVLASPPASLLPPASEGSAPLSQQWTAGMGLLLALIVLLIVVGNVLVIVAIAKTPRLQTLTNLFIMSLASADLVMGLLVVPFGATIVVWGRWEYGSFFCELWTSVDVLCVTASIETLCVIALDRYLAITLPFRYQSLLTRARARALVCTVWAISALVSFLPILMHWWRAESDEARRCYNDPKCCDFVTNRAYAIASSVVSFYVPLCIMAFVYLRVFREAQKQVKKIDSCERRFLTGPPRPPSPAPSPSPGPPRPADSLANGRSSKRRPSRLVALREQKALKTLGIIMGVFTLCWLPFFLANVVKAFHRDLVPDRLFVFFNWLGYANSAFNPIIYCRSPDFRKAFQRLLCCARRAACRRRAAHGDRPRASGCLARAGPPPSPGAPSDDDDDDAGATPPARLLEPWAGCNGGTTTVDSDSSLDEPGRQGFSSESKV

SMILES: O=C1C2C3C=CC(C3)C2C(=O)N1OCC(O)CN1CCN(c2ccccc2)CC1 (stereo not drawn)
- Ki [1]: 38500 nM
- Ki [2]: 370 nM
- Ki [3]: 336 nM
